Source: US10934263B2, “Charged ion channel blockers and methods for use” (Nocion Therapeutics, Inc., priority 2019, dated 2021)

Key:
NaV1.7 [1] = target: T1, NaV1.7 (Homo sapiens, UniProt Q15858); test: Automated patch clamp (Qube 384), internal block of NaV1.7 in HEK293 cells; format: cell-based; settings: compound in internal solution, read-out: Nav1.7 Intracellular Inhibition (IC50)
T1 construct: expressed in transfected cells; tetracycline-inducible, kept under hygromycin and blasticidin
Method: (§1) NaV1.7 was expressed in HEK293 cells upon induction with tetracycline. Cells were cultured in DMEM containing 10% dialyzed Fetal Bovine Serum (VWR, Radnor, Pa.), 1% Glutamax (VWR, Radnor, Pa.), 1% Penicillin-Streptomycin (VWR, Radnor, Pa.), 100 mg/L Hygromycin (Thermo Fisher Scientific, Waltham, Mass. and 5 mg/L Blasticidin (Alfa Aesar, Haverhill, Mass.). Cells were grown and maintained at 37° C. in a humidified environment containing 10% CO2 in air. Cells were detached from the culture flask for passage and harvested using 0.05% Trypsin-EDTA (Thermo Fisher Scientific, Waltham, Mass.). To induce NaV1.7, cells were induced with tetracycline (0.1-1 μg/mL, IBI Scientific, Peosta, Iowa) the day before recording.
(§2) Before experiments, cells were washed with DPBS (VWR, Radnor, Pa.), digested with Detachin (VWR Radnor, Pa.) and then triturated 10 times in CHO Serum-Free Media (VWR Radnor, Pa.) to resuspend the cells and to break apart cell aggregates. Cells were counted and the final concentration was set at 2-5 million cells per mL.
(§3) The intracellular solution contained the following: 140 mM CsF, 1 mM/5 mM EGTA/CsOH, 10 mM HEPES, 10 mM NaCl, adjusted to pH 7.3 with CsOH, and osmolality to 320 with sucrose. The external solution contained the following: 145 mM NaCl, 4 mM KCl, 1 mM MgCl2, 2 mM CaCl2, 10 mM HEPES, 10 mM Glucose, adjusted to pH 7.4 with CsOH and osmolality to 305 with sucrose. All chemicals are from Sigma-Aldrich, St. Louis, Mo. In order to test the degree of internal block by test compounds, the compounds were dissolved in internal solution at the indicated test concentration. […] In order to test the degree of external block by test compounds the compounds were dissolved in external solution at the indicated test concentration.
(§4) Automated Patch Clamps were performed on Qube 384 (Sophion Bioscience, Woburn Mass.) with multihole Qchips at a temperature setting of 22 degrees. The whole cells configuration was formed with default Qube seal and break-in parameter. The membrane potential was held at −100 mV before the voltage protocol began. Two voltage protocols were followed.
(§5) Step 1: Cells were held at −100 mV with a depolarized pulse to −20 mV for 10 ms, the interval was set at 5 s. Currents were corrected by default leak subtraction from every pulse. The duration was set at 5 mins.
(§6) Step 2: Cells were held at −100 mV with a depolarized pulse to −20 mV for 10 ms. The frequency was 5 Hz. Currents were corrected by leak subtraction calculated before step 2. The duration was set at 4 mins.
After Step 2, the Qchip was removed from the recording chamber. The internal solution was changed with solutions containing test compounds. Qchips were held at −100 mV without pulsing after being replaced in the recording chamber. The total solution switching time was 8 minutes. After the internal solution exchange, Cells were recorded and step 2 for repeated for 10 minutes.
Data analysis was performed by Sophion Analyzer. Cells were filtered with minimum 50 MOhm seal resistance and minimum 5 nA starting current. The rundown of the currents was corrected with control cells (Non-Drug). The remaining was calculated by averaging last 3 points in the end of experiments. The base line was calculated as the average of last 3 points of Step 2. IC50 curves were plotted with DR-plots/Hill function (a dose-response plot with a Hill fit). Data analysis was performed by Sophion Analyzer.

NaV1.7 [2] = target: T1, NaV1.7; test: Whole cell patch clamp, internal block of NaV1.7 current (compound in internal solution); format: cell-based; settings: compound applied internally, manual patch clamp, read-out: Nav1.7 Intracellular Inhibition
Method: Representative compounds of the invention were synthesized according to the described methods and tested for the ability to inhibit voltage-gated sodium channels.
as §1, with “expressed” for “expressed in HEK293 cells”, “recording and plated onto 24-well plates. Cells were washed with DPBS (VWR, Radnor, Pa.), trypsinized and then triturated five times in 10 mL of growth media to break apart cell aggregates. For one 24-well plate, 2 mL of cell suspension was mixed with 23 mL of fresh growth media and 0.1-1 μg/mL tetracycline added. 1 ml of mixed media with cells was then added to each well of a 24-well plate, with a 12 mm coverslip already placed in the bottom of the well. Cells were then incubated in 37° C. and 10% CO2 overnight.” for “recording.”
The intracellular solution contained the following (in mM) CsCl 135, NaCl 10, EGTA 10, HEPES 10, MgCl2 2, adjusted to pH 7.2 with CsOH. The external solution was a normal Ringer solution containing (in mM) NaCl 155, HEPES 10, glucose 10, KCl 3.5, CaCl2 1.5, MgCl2 1 adjusted to pH 7.4 with NaOH. CsCl is from Alfa Aesar, Haverhill, Mass. All other chemicals are from Sigma-Aldrich, St. Louis, Mo. In order to test the degree of internal block by test compounds the compounds were dissolved in internal solution at the indicated test concentration. […] In order to test the degree of external block by test compounds the compounds were dissolved in external solution at the indicated test concentration.
18-24 hours after cells were induced with tetracycline, coverslips were placed into a chamber filled with Normal Ringer solution at room temperature and the chamber placed on a microscope. Pipettes were pulled from borosilicate glass on a P97 puller (Sutter Instrument, Novato, Calif.) and polished with a MF-830 Microforge (Narishige International USA, Inc, Amityville, N.Y.) to have a resistance of 1.5-2.5 MΩ when filled with CsCl internal solution at room temperature. Healthy cells (those that are round and translucent with no visible blemishes) were chosen for seal formation. A seal was formed between the pipette and the cell, and a brief pulse of suction was used to “break in” and establish the whole-cell configuration. The membrane potential was held at −100 mV before the voltage protocol began. Only cells with series resistance between 1.5-5 MΩ were retained for analysis. The voltage protocol was as follows: Cells were held at −100 mV for 12 ms followed by a hyperpolarizing step to −105 mV for 12 ms to monitor the leak. Cells were then stepped back to −100 mV for 40 ms. Cells were then depolarized to −20 mV for 10 ms and then returned to −100 mV for 26 ms.
Once the recording was started, the voltage protocol was run at 30 second intervals for 5 minutes to get a stable baseline. This was followed by four 30-second periods of 5 Hz stimulation of the same voltage protocol separated by 1 minute of rest which was then followed by 0.33 Hz stimulation after the last train. Currents were recorded using PatchMaster software with Heka EPC10 (HEKA Electronics, Lambrecht, Germany). Only cells with inward current amplitudes at −20 mV between 400 pA and 4 nA were accepted. In addition, cells having leak currents greater than 10% of their current amplitudes were discarded. […]

NaV1.7 [3] = target: T1, NaV1.7; test: Automated patch clamp (Qube 384), external block of NaV1.7 in HEK293 cells; format: cell-based; settings: compound in external solution, read-out: Nav1.7 Extracellular Inhibition (IC50)
Method: as §1, §2, §3, §4, §5, §6
After Step 2, the external solution was changed with solutions containing test compounds. Qchips were held at −100 mV without pulsing. The total solution switching time was 8 minutes. After the external solution exchange, cells were recorded using the same procedure as step 2 for 10 minutes.
Data analysis was performed by Sophion Analyzer. Data were corrected with control cells (Non-Drug). The IC50 data were plotted with DR-plots/Hill function (a dose-response plot with a Hill fit).

[4] = PAMPA membrane permeability assay; format: in vitro ADME; settings: PAMPA permeability coefficient, GIT lipid, buffer pH 7.4, 4 hours incubation
Method: The PAMPA assay (pION, Inc., Woburn Mass.) was used to determine the ability of compounds of the invention to cross an artificial lipid membrane by passive diffusion. Test compounds were dissolved in DMSO (10 mM) and diluted 200-fold in buffer (pION Inc., pH 7.4) to provide 50 uM stock solutions. Buffer (150 μL) was added to a UV blank plate and stock solutions (150 μL) were transferred to a UV reference plate. The blank and reference spectrum were read using a spectrophotometer. Stock solutions (200 μL) were added to the donor plate of the PAMPA sandwich plate and an accept plate painted with GIT lipid (pION Inc, 5 μL) was placed on top. Buffer (200 μL) was added to the acceptor plate and the PAMPA sandwich plate was incubated for 4 hours. Aliquots (150 μL) from the acceptor plate were added to a UV plate and read as acceptor spectrum. Aliquots (150 μL) of the donor solutions were added to a UV analysis plate and read as donor spectrum. The permeability coefficient of test compounds was calculated using PAMPA Explorer™ software (version 3.5.0.4) based on the AUC of the reference plate, the donor plate, and the acceptor plate.

T1 sequence (Q15858 whole entry): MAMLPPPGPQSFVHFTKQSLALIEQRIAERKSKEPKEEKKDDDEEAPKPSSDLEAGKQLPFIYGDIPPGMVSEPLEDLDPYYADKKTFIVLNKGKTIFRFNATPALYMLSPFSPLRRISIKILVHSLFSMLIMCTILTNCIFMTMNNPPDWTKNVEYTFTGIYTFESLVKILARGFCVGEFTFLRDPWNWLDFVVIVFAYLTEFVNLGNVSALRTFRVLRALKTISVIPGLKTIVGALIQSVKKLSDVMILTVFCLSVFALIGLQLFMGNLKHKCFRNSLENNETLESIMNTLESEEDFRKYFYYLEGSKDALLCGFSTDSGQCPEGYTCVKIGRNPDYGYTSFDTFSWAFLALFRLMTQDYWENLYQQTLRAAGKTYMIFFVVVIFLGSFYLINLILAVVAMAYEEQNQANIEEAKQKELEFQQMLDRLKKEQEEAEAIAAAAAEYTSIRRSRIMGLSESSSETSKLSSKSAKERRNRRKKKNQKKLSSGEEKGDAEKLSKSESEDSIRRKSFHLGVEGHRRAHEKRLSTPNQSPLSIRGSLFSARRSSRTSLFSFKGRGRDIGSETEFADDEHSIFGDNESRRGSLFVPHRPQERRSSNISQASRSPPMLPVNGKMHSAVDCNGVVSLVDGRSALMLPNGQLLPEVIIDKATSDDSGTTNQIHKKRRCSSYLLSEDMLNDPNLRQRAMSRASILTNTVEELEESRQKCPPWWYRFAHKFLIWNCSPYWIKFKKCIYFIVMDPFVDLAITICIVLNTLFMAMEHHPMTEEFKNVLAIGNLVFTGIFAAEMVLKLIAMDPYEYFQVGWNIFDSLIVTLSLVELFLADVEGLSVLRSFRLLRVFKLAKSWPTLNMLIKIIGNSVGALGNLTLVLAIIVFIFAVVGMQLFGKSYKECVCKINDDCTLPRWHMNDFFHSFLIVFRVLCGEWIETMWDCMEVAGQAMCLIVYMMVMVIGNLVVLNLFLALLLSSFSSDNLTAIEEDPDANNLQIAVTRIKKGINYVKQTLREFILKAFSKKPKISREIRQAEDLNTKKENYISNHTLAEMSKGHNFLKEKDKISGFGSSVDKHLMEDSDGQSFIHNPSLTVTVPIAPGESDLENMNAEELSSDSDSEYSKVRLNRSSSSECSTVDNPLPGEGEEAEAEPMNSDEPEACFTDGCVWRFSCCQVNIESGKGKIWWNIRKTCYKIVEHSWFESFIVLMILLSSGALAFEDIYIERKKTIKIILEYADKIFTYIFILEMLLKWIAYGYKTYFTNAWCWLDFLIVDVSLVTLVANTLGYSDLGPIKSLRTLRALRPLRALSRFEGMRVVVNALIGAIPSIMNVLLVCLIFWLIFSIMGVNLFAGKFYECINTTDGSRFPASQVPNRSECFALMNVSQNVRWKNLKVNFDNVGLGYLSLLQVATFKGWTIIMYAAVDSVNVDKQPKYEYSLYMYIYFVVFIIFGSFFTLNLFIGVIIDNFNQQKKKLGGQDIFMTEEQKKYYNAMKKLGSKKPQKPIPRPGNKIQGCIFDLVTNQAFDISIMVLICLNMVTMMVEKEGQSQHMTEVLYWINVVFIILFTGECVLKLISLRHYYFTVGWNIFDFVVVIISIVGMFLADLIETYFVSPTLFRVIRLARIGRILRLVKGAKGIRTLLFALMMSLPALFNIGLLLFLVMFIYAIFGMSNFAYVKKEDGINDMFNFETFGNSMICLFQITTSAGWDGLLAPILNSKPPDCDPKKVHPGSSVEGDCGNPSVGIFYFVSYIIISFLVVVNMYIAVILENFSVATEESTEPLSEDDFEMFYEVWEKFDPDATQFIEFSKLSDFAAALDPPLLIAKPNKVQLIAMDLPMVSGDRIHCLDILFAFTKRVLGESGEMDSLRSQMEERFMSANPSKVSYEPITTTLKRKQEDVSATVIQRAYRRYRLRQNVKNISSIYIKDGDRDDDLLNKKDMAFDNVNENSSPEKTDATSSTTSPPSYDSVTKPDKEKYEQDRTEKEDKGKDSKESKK

SMILES	IC50 (NaV1.7 [1]) [µM]	inhibition at 10 µM (NaV1.7 [2]) [%]	IC50 (NaV1.7 [3]) [µM]	PAMPA (10^−6 cm/s) [4]	inhibition at 32 µM (NaV1.7 [2]) [%]
Cc1cccc(C)c1NC(=O)C[n+]1c(C)ccc(-c2ccccc2)c1C [Compound 23]	< 1		< 10		
Cc1cccc(C)c1NC(=O)C[n+]1cc(-c2ccccc2)n(C)c1 [Compound 24]	3 to 10		> 100		
Cc1cccc(C)c1NC(=O)C[n+]1ccccc1-c1ccccc1 [Compound 16]	1 to 3		> 100		
Cc1cccc(C)c1NC(=O)C[n+]1cccn1CC(C)C [Compound 27]	1 to 3		> 100		
Cc1cccc(C)c1NC(=O)C[n+]1cccc(C2CC2)c1 [Compound 22]	3 to 10		30 to 100		
Cc1cccc(C)c1NC(=O)C[n+]1cccc(C2CCCC2)c1 [Compound 21]	< 1		< 10		
Cc1cccc(C)c1NC(=O)C[n+]1c(C)cccc1C [Compound 6]	1 to 3		> 100		
Cc1cccc(C)c1NC(=O)C[n+]1cccc(-c2ccccc2)c1 [Compound 12]	1 to 3		10 to 30		
Cc1cccc(C)c1NC(=O)C[n+]1cc(-c2ccccc2)n(C)c1.[Br-] [Compound 24A]				+ (<0.1 10^−6 cm/s)	70 to 95
Cc1cccc(C)c1NC(=O)C[n+]1ccc2ccccc2c1.[Br-] [Compound 15A]				++ (0.1-2.0 10^−6 cm/s)	> 95
Cc1cccc(C)c1NC(=O)C[n+]1cccc(C2CCCC2)c1.[Br-] [Compound 21A]				+ (<0.1 10^−6 cm/s)	> 95

Continued, values first:

IC50 (NaV1.7 [1]) [µM]	inhibition at 10 µM (NaV1.7 [2]) [%]	IC50 (NaV1.7 [3]) [µM]	PAMPA (10^−6 cm/s) [4]	inhibition at 32 µM (NaV1.7 [2]) [%]	SMILES
3 to 10	70 to 95	> 100			Cc1cccc(C)c1NC(=O)C[n+]1cccc(N)c1 [Compound 49]
1 to 3	> 95	30 to 100			Cc1cccc(C)c1NC(=O)C[n+]1cc(F)ccc1-c1ccccc1 [Compound 79]
< 1		30 to 100			Cc1cccc(C)c1NC(=O)C[n+]1cccn1C1CCCCC1 [Compound 28]
3 to 10	40 to 70	< 10			Cc1cccc(C)c1NC(=O)C[n+]1cc(F)c2ccccc2c1 [Compound 67]
10 to 30	70 to 95		++ (0.1-2.0 10^−6 cm/s)		Cc1cccc(C)c1NC(=O)Cn1cc[n+](CC(=O)Nc2c(C)cccc2C)c1 [Compound 110]
1 to 3	70 to 95	> 100			CNC(=O)c1ccc[n+](CC(=O)Nc2c(C)cccc2C)c1 [Compound 40]
3 to 10		> 100			Cc1cccc(C)c1NC(=O)C[n+]1cccn1-c1ccccc1 [Compound 29]
1 to 3		> 100			CCNC(=O)Cn1ccc[n+]1CC(=O)Nc1c(C)cccc1C [Compound 30]
1 to 3	70 to 95	> 100			Cc1cccc(C)c1NC(=O)C[n+]1cccc(C(C)(C)C)c1 [Compound 32]
10 to 30	70 to 95		++ (0.1-2.0 10^−6 cm/s)		Cc1cccc(C)c1NC(=O)C[n+]1cc(CO)n(C(C)C)c1 [Compound 59]
10 to 30	< 40		+ (<0.1 10^−6 cm/s)		Cc1cccc(C)c1NC(=O)C[n+]1cccc(-c2nn[nH]n2)c1 [Compound 53]
10 to 30	70 to 95	< 10			COc1cc(C#N)c[n+](CC(=O)Nc2c(C)cccc2C)c1 [Compound 97]
1 to 3					Cc1cccc(C)c1NC(=O)C[n+]1cccc(C(=O)OC2CCCC2)c1 [Compound 105]
	70 to 95		+ (<0.1 10^−6 cm/s)		Cc1cccc(C)c1NC(=O)C[n+]1ccn(C(C)(C)C)c1 [Compound 36]
1 to 3		< 10			Cc1cccc(C)c1NC(=O)C[n+]1cc(-c2ccccc2)c2ccccc2c1 [Compound 100]
